Assay results published in patent US11666600B2, “Methods for culturing and/or differentiating hematopoietic stem cells into progenitors and uses thereof” (HEMA-QUEBEC, priority 2015, dated 2023).
Values joined by “and” are separate entries in the source; they are usually repeats but may differ in a detail not shown here. Equal entries are not always repeated.

How the values were obtained:
[1] = tested on: Human G-CSF-mobilized peripheral blood CD34+ cells; test: Expansion of CD34+/CD41+ megakaryocytic progenitors from mobilized peripheral blood CD34+ cells; assay type: cell-based; conditions: 39° C. + PIC 35 nM; 14 days; SFEM + BS1; FIG. 5
Method: (§1) Human bone marrow and G-CSF-mobilized peripheral blood CD34+ cells were purchased from AllCells.
(§2) Human CD34+-enriched cells (purity 90%) were seeded in 24-well plates at 100 000 cells/mL in expansion medium consisting of either (1) StemSpan™ ACF (ACF; […] Technologies) supplemented with the OMPC cytokine cocktail (Robert et al., 2011), or (2) StemSpan™ SFEM ([…] Technologies) supplemented with the BS1 megakaryocyte expansion and differentiation cocktail (Cortin et al., 2005). OMPC consists of 35 ng/mL thrombopoietin (TPO; Feldan Therapeutics), 10 ng/mL stem cell factor (SCF; Peprotech), and 11 ng/mL human FMS-like tyrosine kinase 3 ligand (FLT3, Peprotech). […]
(§3) Cellular counts and viability were determined by adding Solution 18 (Acridine Orange and DAPI solution, ChemomMetec) and using NucleoCounter™ NC-250 for detection (ChemomMetec).
(§4) For cells expanded in conditions favoring differentiation towards the MK lineage, surface markers were detected using the following antibodies: CD34-FITC, CD41a-APC and CD42b-PE. […] All samples were analyzed on an Accuri™ C6 flow cytometer (BD Biosciences), and raw data were analyzed with FCS Express 5 Flow Research Edition software from at least 15 000 viable cell events acquired for each sample. […]
(§5) Cellular counts and viability were determined as described in Example 6.5.

[2] = tested on: CD34+/CD45RA− mobilized peripheral blood cells; conditions: Fares et al., 2014; cited from earlier work
[3] = tested on: Human bone marrow CD34+ cells; test: Expansion of CD34+/CD41+ megakaryocytic progenitors from bone marrow CD34+ cells; assay type: cell-based; conditions: 39° C. + PIC 35 nM; 14 days; SFEM + BS1; FIG. 6
Method: as §1, §2, §3, §4, §5

[4] = tested on: CD34+ cells from human umbilical cord blood; test: Culture of cord blood CD34+ cells towards the megakaryocytic lineage (StemSpan ACF + BS1), flow cytometry; assay type: cell-based; conditions: for Percentage of cells bearing CD34+ / Percentage of cells bearing CD34+/CD41+ / Percentage of cells bearing CD34+/CD41− / Percentage of cells bearing CD41+ / Percentage of cells bearing CD41+/CD42+ / Percentage of cells bearing CD42+ / Percentage of cells bearing CD45RA+ / Percentage of cells bearing CD235+: ACF + BS1
Method: CD34+ cells were isolated from human umbilical cord blood by positive selection according to standard procedures. Purified CD34+ cells from either single units or pooled from several units of cord blood were seeded in 1 mL of the appropriate culture medium in 24-well plates at a density of approximately 10^5 cells/mL. Cells were maintained at a density of 10^5-10^6 cells/mL throughout the culture by dilution and/or medium replacement.
For culture and differentiation towards the megakaryocytic lineage, purified CD34+ cells were cultured in StemSpan™ ACF medium ([…]™ Technologies, Vancouver, BC, Canada) supplemented with antibiotics and the “BS1” cytokine cocktail described previously (Cortin et al, 2005), and cell counts were performed on days 6, 10, and 14.
Cell counts and viability were measured using the NucleoCounter NC-250™ Viability and Cell Count Assay system (ChemoMetec Inc., Davis, Calif.), according to the manufacturer's instructions.
Cell phenotypes were determined by flow cytometry on the indicated days using the following panel of labeled primary antibodies: CD34-FITC, CD45RA-APC, CD41a-APC, CD42b-PE, and CD235-PE.
CD34+ cells were isolated and cultured for differentiation towards the megakaryocytic lineage as generally described in Example 1.2. […] Flow cytometry was used to monitor the expansion of CD34+/CD41+ MKP cells over time, as described in Example 1.3.
More thorough cell phenotypic profiles of the CD34+ cells isolated and cultured in Example 2 were determined on days 6, 10 and 14 by flow cytometry as described in Example 1.3.

[5] = tested on: cord blood CD34+ cells; test: Expansion of CD34+/CD41+ megakaryocytic progenitors from cord blood CD34+ cells; assay type: cell-based, human; conditions: 39° C. + PIC 35 nM; 14 days; ACF + OMPC; FIG. 4
Method: Human cord blood (CB) was collected after obtaining written informed consent from donors, following our institutional Research Ethics Committee guidelines. Mononuclear cells (MNCs) were first separated over a Ficoll-Hypaque™ density gradient (GE Healthcare), then cryopreserved at −180° C. in Cryostor CS10™ medium ([…] Technologies). Thawed MNCs from six to eight CB were pooled before CD34 isolation. CB CD34+ cells were enriched by positive selection using the EasySep™ CD34 enrichment kit, according to the manufacturer's instructions ([…] Technologies). […]
as §3, §4
Cellular counts and viability were determined as described in Example 6.5. […]

SMILES: Cl.Cn1nnc(-c2ccc3c(c2)[nH]c2nc(Cc4ccccc4)nc(N[C@H]4CC[C@H](N)CC4)c23)n1 [PIC, (1r,4r)-N1-(2-benzyl-7-(2-methyl-2H-tetrazol-5-yl)-9H-pyrimido[4,5-b]indol-4-yl)cyclohexane-1,4-diamine hydrochloride]
- combined use of mild hyperthermia and PIC on expansion of CD34+/CD41+ cells [1]: synergistic effect
- expansion of CD34+/CD45RA− mobilized peripheral blood cells (enriched in LT-HSCs) [2]: stimulate expansion
- combined use of mild hyperthermia and PIC on expansion of CD34+/CD41+ cells [3]: synergistic effect
- purity of CD34+/CD41+ cells ([4]; 39° C. + PIC 35 nM, data not shown): above 40%
- Percentage of cells bearing CD34+ ([4]; Day 6, 37° C. + PIC 35 nM): 98.38%
- Percentage of cells bearing CD34+/CD41+ ([4]; Day 6, 37° C. + PIC 35 nM): 29.54%
- Percentage of cells bearing CD34+/CD41− ([4]; Day 6, 37° C. + PIC 35 nM): 68.55%
- Percentage of cells bearing CD41+ ([4]; Day 6, 37° C. + PIC 35 nM): 29.27%
- Percentage of cells bearing CD41+/CD42+ ([4]; Day 6, 37° C. + PIC 35 nM): 1.71%
- Percentage of cells bearing CD42+ ([4]; Day 6, 37° C. + PIC 35 nM): 2.48%
- Percentage of cells bearing CD45RA+ ([4]; Day 6, 37° C. + PIC 35 nM): 71.55%
- Percentage of cells bearing CD235+ ([4]; Day 6, 37° C. + PIC 35 nM): 11.67%
- Percentage of cells bearing CD34+ ([4]; Day 6, 39° C. + PIC 35 nM): 97.19%
- Percentage of cells bearing CD34+/CD41+ ([4]; Day 6, 39° C. + PIC 35 nM): 48.85%
- Percentage of cells bearing CD34+/CD41− ([4]; Day 6, 39° C. + PIC 35 nM): 48.02%
- Percentage of cells bearing CD41+ ([4]; Day 6, 39° C. + PIC 35 nM): 49.84%
- Percentage of cells bearing CD41+/CD42+ ([4]; Day 6, 39° C. + PIC 35 nM): 7.95%
- Percentage of cells bearing CD42+ ([4]; Day 6, 39° C. + PIC 35 nM): 8.31%
- Percentage of cells bearing CD45RA+ ([4]; Day 6, 39° C. + PIC 35 nM): 58.97%
- Percentage of cells bearing CD235+ ([4]; Day 6, 39° C. + PIC 35 nM): 19.51%
- Percentage of cells bearing CD34+ ([4]; Day 10, 37° C. + PIC 35 nM): 84.39%
- Percentage of cells bearing CD34+/CD41+ ([4]; Day 10, 37° C. + PIC 35 nM): 20.21%
- Percentage of cells bearing CD34+/CD41− ([4]; Day 10, 37° C. + PIC 35 nM): 64.40%
- Percentage of cells bearing CD41+ ([4]; Day 10, 37° C. + PIC 35 nM): 24.84%
- Percentage of cells bearing CD41+/CD42+ ([4]; Day 10, 37° C. + PIC 35 nM): 1.30%
- Percentage of cells bearing CD42+ ([4]; Day 10, 37° C. + PIC 35 nM): 2.55%
- Percentage of cells bearing CD45RA+ ([4]; Day 10, 37° C. + PIC 35 nM): 76.43%
- Percentage of cells bearing CD235+ ([4]; Day 10, 37° C. + PIC 35 nM): 7.45%
- Percentage of cells bearing CD34+ ([4]; Day 10, 39° C. + PIC 35 nM): 87.29%
- Percentage of cells bearing CD34+/CD41+ ([4]; Day 10, 39° C. + PIC 35 nM): 67.10%
- Percentage of cells bearing CD34+/CD41− ([4]; Day 10, 39° C. + PIC 35 nM): 21.37%
- Percentage of cells bearing CD41+ ([4]; Day 10, 39° C. + PIC 35 nM): 73.31%
- Percentage of cells bearing CD41+/CD42+ ([4]; Day 10, 39° C. + PIC 35 nM): 17.09%
- Percentage of cells bearing CD42+ ([4]; Day 10, 39° C. + PIC 35 nM): 17.30%
- Percentage of cells bearing CD45RA+ ([4]; Day 10, 39° C. + PIC 35 nM): 46.94%
- Percentage of cells bearing CD235+ ([4]; Day 10, 39° C. + PIC 35 nM): 14.40%
- Percentage of cells bearing CD34+ ([4]; Day 14, 37° C. + PIC 35 nM): 69.53%
- Percentage of cells bearing CD34+/CD41+ ([4]; Day 14, 37° C. + PIC 35 nM): 11% and 11.01%
- Percentage of cells bearing CD34+/CD41− ([4]; Day 14, 37° C. + PIC 35 nM): 54.97%
- Percentage of cells bearing CD41+ ([4]; Day 14, 37° C. + PIC 35 nM): 23.65%
- Percentage of cells bearing CD42+ ([4]; Day 14, 37° C. + PIC 35 nM): 3.02%
- Percentage of cells bearing CD45RA+ ([4]; Day 14, 37° C. + PIC 35 nM): 61.90%
- Percentage of cells bearing CD235+ ([4]; Day 14, 37° C. + PIC 35 nM): 2.90%
- Percentage of cells bearing CD34+ ([4]; Day 14, 39° C. + PIC 35 nM): 88.56%
- Percentage of cells bearing CD34+/CD41+ ([4]; Day 14, 39° C. + PIC 35 nM): 76.5% and 76.46%
- Percentage of cells bearing CD34+/CD41− ([4]; Day 14, 39° C. + PIC 35 nM): 10.25%
- Percentage of cells bearing CD41+ ([4]; Day 14, 39° C. + PIC 35 nM): 87.90%
- Percentage of cells bearing CD42+ ([4]; Day 14, 39° C. + PIC 35 nM): 27.09%
- Percentage of cells bearing CD45RA+ ([4]; Day 14, 39° C. + PIC 35 nM): 27.09%
- Percentage of cells bearing CD235+ ([4]; Day 14, 39° C. + PIC 35 nM): 12.61%
- Percentage of cells bearing CD41+/CD42+ ([4]; Day 14, 39° C. + PIC 35 nM, hydrochloride): 27% and 27.04%
- combined use of mild hyperthermia and PIC on expansion of CD34+/CD41+ cells [5]: synergistic effect
